In patent publication US20060100245A1, “Substituted biphenyl-4-carboxylic acid arylamide analogues” (Neurogen Corporation, priority 2002, published 2006) one finds Ki data, which are given here for 44 molecules.

Some results are limits rather than exact numbers.

The Ki is the dissociation constant of the complex between target and ligand, obtained from inhibition or displacement.

The experiment has as its target T1, human capsaicin receptor (VR1) (Homo sapiens, UniProt Q8NER1).
T1 construct: transfected with the pBK-CMV expression construct encoding the full length human capsaicin receptor; expressed in transfected cells
As to the kind of experiment: Capsaicin receptor binding assay ([3H]RTX competition). Conditions: read-out: Ki. Put shortly:
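Membranes from HEK293 cells stably expressing full-length human VR1; competition against 60 pM [3H]RTX, 60 min at 37 °C in HEPES/sucrose buffer pH 7.4 with 0.25 mg/ml BSA. Non-specific binding defined with 1 μM unlabelled RTX; alpha1-acid glycoprotein added after termination on ice.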

T1 sequence (Q8NER1 whole entry): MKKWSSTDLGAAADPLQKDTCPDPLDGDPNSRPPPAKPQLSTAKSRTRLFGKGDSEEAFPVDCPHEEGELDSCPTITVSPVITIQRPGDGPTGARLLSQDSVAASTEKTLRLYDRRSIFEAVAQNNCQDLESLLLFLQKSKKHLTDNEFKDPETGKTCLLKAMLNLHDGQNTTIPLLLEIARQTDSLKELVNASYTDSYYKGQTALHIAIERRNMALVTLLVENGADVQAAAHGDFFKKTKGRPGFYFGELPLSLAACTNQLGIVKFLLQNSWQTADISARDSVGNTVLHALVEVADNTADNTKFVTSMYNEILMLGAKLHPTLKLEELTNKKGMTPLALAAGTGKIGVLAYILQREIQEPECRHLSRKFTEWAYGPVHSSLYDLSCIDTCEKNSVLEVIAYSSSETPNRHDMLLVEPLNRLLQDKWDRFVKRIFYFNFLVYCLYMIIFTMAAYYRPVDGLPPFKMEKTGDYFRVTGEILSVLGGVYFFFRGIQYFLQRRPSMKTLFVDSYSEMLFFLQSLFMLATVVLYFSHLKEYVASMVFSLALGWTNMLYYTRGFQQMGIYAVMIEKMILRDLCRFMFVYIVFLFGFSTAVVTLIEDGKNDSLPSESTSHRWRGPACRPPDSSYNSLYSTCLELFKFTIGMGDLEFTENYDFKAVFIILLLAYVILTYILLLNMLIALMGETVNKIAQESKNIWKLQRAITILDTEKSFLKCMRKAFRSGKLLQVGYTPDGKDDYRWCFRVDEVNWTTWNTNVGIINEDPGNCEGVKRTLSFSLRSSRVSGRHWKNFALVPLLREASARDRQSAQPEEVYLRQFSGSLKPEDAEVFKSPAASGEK

For `CCCCc1ccc(NC(=O)c2ccc(-c3ncccc3Cl)cc2)cc1` [Compound 332, N-(4-Butyl-phenyl)-4-(3-chloro-pyridin-2-yl)-benzamide], the Ki is below 1000 nM.

In the case of `CCCCc1ccc(NC(=O)c2ccc(-c3ccccc3C)nc2)cc1` [Compound 343, N-(4-Butyl-phenyl)-6-o-tolyl-nicotinamide], the Ki is below 1000 nM.

Take `O=C(Nc1ccc(Cl)cc1)c1ccc(-c2ccccc2F)nc1` [Compound 348, N-(4-Chloro-phenyl)-6-(2-fluoro-phenyl)-nicotinamide]: the inhibitory constant (Ki) is below 1000 nM.

`O=C(Nc1ccc(C2CCCC2)cc1)c1ccc(-c2ncccc2F)cc1` [Compound 363, N-(4-Cyclopenyl-phenyl)-4-(3-fluoro-pyridin-2-yl)-benzamide]: the Ki is below 1000 nM.

In the case of `CCc1ccc(NC(=O)c2ccc(-c3ccccc3F)nc2)cc1` [Compound 365, N-(4-Ethyl-phenyl)-6-(2-fluoro-phenyl)-nicotinamide], the inhibitory constant (Ki) is below 1000 nM.

Consider `CCc1ccc(NC(=O)c2ccc(-c3ccccc3C)nc2)cc1` [Compound 374, N-(4-Ethyl-phenyl)-6-o-tolyl-nicotinamide], for which the inhibition constant Ki is below 1000 nM.

For `O=C(Nc1ccc(F)cc1)c1ccc(-c2ncccc2F)cc1` [Compound 375, N-(4-Fluoro-phenyl)-4-(3-fluoro-pyridin-2-yl)-benzamide], the Ki is below 1000 nM.

In the case of `COc1ccccc1-c1ccc(C(=O)Nc2ccc(C(C)C)cc2)cn1` [Compound 378, N-(4-Isopropyl-phenyl)-6-(2-methoxy-phenyl)-nicotinamide], the Ki is below 1000 nM.

Regarding `Cc1cccc(-c2ccc(C(=O)Nc3ccc(C(C)C)cc3)cn2)c1` [Compound 383, N-(4-Isopropyl-phenyl)-6-m-tolyl-nicotinamide], the inhibitory constant (Ki) was below 1000 nM.

Take `Cc1ccccc1-c1ccc(C(=O)Nc2ccc(C(C)C)cc2)cn1` [Compound 384, N-(4-Isopropyl-phenyl)-6-o-tolyl-nicotinamide]: the Ki is below 1000 nM.

In the case of `CC(C)c1ccc(NC(=O)c2ccc(-c3ccccc3)nc2)cc1` [Compound 385, N-(4-Isopropyl-phenyl)-6-phenyl-nicotinamide], the inhibitory constant (Ki) is below 1000 nM.

Consider `CCCc1ccc(NC(=O)c2ccc(-c3ccccc3C)nc2)cc1` [Compound 389, N-(4-Propyl-phenyl)-6-o-tolyl-nicotinamide], for which the Ki is below 1000 nM.

On to `CCC(C)c1ccc(NC(=O)c2ccc(-c3ncccc3F)cc2)cc1` (centres unmarked) [Compound 390, N-(4-sec-Butyl-phenyl)-4-(3-fluoro-pyridin-2-yl)-benzamide], for which the inhibition constant (Ki) is below 1000 nM.

`COc1ccc(F)cc1-c1ccc(C(=O)Nc2ccc(C(C)(C)C)cc2Cl)cn1` [Compound 391, N-(4-tert-Butyl-2-chloro-phenyl)-6-(5-fluoro-2-methoxy-phenyl)-nicotinamide]: the Ki is below 1000 nM.

Consider `CC(C)(C)[C@H]1CC[C@H](NC(=O)c2ccc(-c3ncccc3Cl)cc2)CC1` [Compound 392, N-(4-tert-Butyl-cyclohexyl)-4-(3-chloro-pyridin-2-yl)-benzamide (trans)], for which the Ki was below 1000 nM.

Regarding `CC(C)(C)[C@H]1CC[C@@H](NC(=O)c2ccc(-c3ncccc3Cl)cc2)CC1` [Compound 393, N-(4-tert-Butyl-cyclohexyl)-4-(3-chloro-pyridin-2-yl)-benzamide (cis)], the Ki is below 1000 nM.

On to `CC(C)(C)c1ccc(NC(=O)c2ccc(-c3ncccc3C(F)(F)F)cc2O)cc1` [Compound 394, N-(4-tert-Butyl-phenyl)-2-hydroxy-4-(3-trifluoromethyl-pyridin-2-yl)-benzamide], for which the Ki was below 1000 nM.

Take `CC(C)(C)c1ccc(NC(=O)c2ccc(-c3ncccc3C(F)(F)F)cc2[N+](=O)[O-])cc1` [Compound 395, N-(4-tert-Butyl-phenyl)-2-nitro-4-(3-trifluoromethyl-pyridin-2-yl)-benzamide]: the Ki is below 1000 nM.

Take `CC(C)(C)c1ccc(NC(=O)c2ccc(-c3ccc4[nH]ccc4c3)cc2)cc1` [Compound 396, N-(4-tert-Butyl-phenyl)-4-(1H-indol-5-yl)-benzamide]: the inhibition constant (Ki) was below 1000 nM.

As to `CC(C)(C)c1ccc(NC(=O)c2ccc(C3CCCCN3S(C)(=O)=O)cc2)cc1` (centres unmarked) [Compound 397, N-(4-tert-Butyl-phenyl)-4-(1-methanesulfonyl-piperidin-2-yl)-benzamide], the Ki was below 1000 nM.

With `CN1CCCCC1c1ccc(C(=O)Nc2ccc(C(C)(C)C)cc2)cc1` (centres unmarked) [Compound 398, N-(4-tert-Butyl-phenyl)-4-(1-methyl-piperidin-2-yl)-benzamide], the inhibitory constant (Ki) was below 1000 nM.

Take `CCCN1CCCCC1c1ccc(C(=O)Nc2ccc(C(C)(C)C)cc2)cc1` (centres unmarked) [Compound 399, N-(4-tert-Butyl-phenyl)-4-(1-propyl-piperidin-2-yl)-benzamide]: the inhibition constant Ki was below 1000 nM.

Take `CC(C)(C)c1ccc(NC(=O)c2ccc(-c3ncc(Cl)cc3Cl)cc2)cc1` [Compound 400, N-(4-tert-Butyl-phenyl)-4-(3,5-dichloro-pyridin-2-yl)-benzamide]: the inhibitory constant (Ki) was below 1000 nM.

As to `CC(C)(C)c1ccc(NC(=O)c2ccc(-c3ncccc3-c3nnco3)cc2)cc1` [Compound 401, N-(4-tert-Butyl-phenyl)-4-(3-[1,3,4]oxadiazol-2-yl-pyridin-2-yl)-benzamide], the Ki is below 1000 nM.

Regarding `CC(C)(C)c1ccc(NC(=O)c2ccc(-c3ncc(C(F)(F)F)cc3Cl)cc2)cc1` [Compound 402, N-(4-tert-Butyl-phenyl)-4-(3-chloro-5-trifluoromethyl-pyridin-2-yl)-benzamide], the Ki was below 1000 nM.

As to `CC(C)(C)c1ccc(NC(=O)c2ccc(-c3nccnc3Cl)cc2)cc1` [Compound 403, N-(4-tert-Butyl-phenyl)-4-(3-chloro-pyrazin-2-yl)-benzamide], the Ki is below 1000 nM.

As to `CC(C)(C)c1ccc(NC(=O)c2ccc(-c3ncccc3Cl)cc2)cc1` [Compound 404, N-(4-tert-Butyl-phenyl)-4-(3-chloro-pyridin-2-yl)-benzamide], the Ki was below 1000 nM.

With `CC(C)(C)c1ccc(NC(=O)c2ccc(-c3ncccc3C#N)cc2)cc1` [Compound 405, N-(4-tert-Butyl-phenyl)-4-(3-cyano-pyridin-2-yl)-benzamide], the inhibition constant (Ki) is below 1000 nM.

On to `CC(C)(C)c1ccc(NC(=O)c2ccc(-c3ncccc3NC3CCCC3)cc2)cc1` [Compound 406, N-(4-tert-Butyl-phenyl)-4-(3-cyclopentylamino-pyridin-2-yl)-benzamide], for which the inhibition constant (Ki) is below 1000 nM.

For `CN(C)Cc1cccnc1-c1ccc(C(=O)Nc2ccc(C(C)(C)C)cc2)cc1` [Compound 407, N-(4-tert-Butyl-phenyl)-4-(3-dimethylaminomethyl-pyridin-2-yl)-benzamide], the Ki was below 1000 nM.

As to `CCS(=O)(=O)Nc1cccnc1-c1ccc(C(=O)Nc2ccc(C(C)(C)C)cc2)cc1` [Compound 408, N-(4-tert-Butyl-phenyl)-4-(3-ethanesulfonylamino-pyridin-2-yl)-benzamide], the Ki is below 1000 nM.

As for `CC(C)(C)c1ccc(NC(=O)c2ccc(-c3ncccc3F)cc2)cc1` [Compound 409, N-(4-tert-Butyl-phenyl)-4-(3-fluoro-pyridin-2-yl)-benzamide], the Ki is below 1000 nM.

For `CC(C)(C)c1ccc(NC(=O)c2ccc(-c3ncccc3C=O)cc2)cc1` [Compound 410, N-(4-tert-Butyl-phenyl)-4-(3-formyl-pyridin-2-yl)-benzamide], the inhibition constant (Ki) was below 1000 nM.

For the molecule `CC(C)(C)c1ccc(NC(=O)c2ccc(-c3ncccc3NO)cc2)cc1` [Compound 411, N-(4-tert-Butyl-phenyl)-4-(3-hydroxyamino-pyridin-2-yl)-benzamide], the Ki was below 1000 nM.

Consider `CC(C)(C)c1ccc(NC(=O)c2ccc(-c3ncccc3CO)cc2)cc1` [Compound 412, N-(4-tert-Butyl-phenyl)-4-(3-hydroxymethyl-pyridin-2-yl)-benzamide], for which the Ki was below 1000 nM.

In the case of `CC(C)(C)c1ccc(NC(=O)c2ccc(-c3ncccc3NS(C)(=O)=O)cc2)cc1` [Compound 413, N-(4-tert-Butyl-phenyl)-4-(3-methanesulfonylamino-pyridin-2-yl)-benzamide], the Ki is below 1000 nM.

On to `CC(C)(C)c1ccc(NC(=O)c2ccc(-c3ncccc3[N+](=O)[O-])cc2)cc1` [Compound 415, N-(4-tert-Butyl-phenyl)-4-(3-nitro-pyridin-2-yl)-benzamide], for which the inhibitory constant (Ki) was below 1000 nM.

Regarding `CC(C)(C)c1ccc(NC(=O)c2ccc(-c3ccncc3[N+](=O)[O-])cc2)cc1` [Compound 416, N-(4-tert-Butyl-phenyl)-4-(3-nitro-pyridin-4-yl)-benzamide], the inhibition constant Ki was below 1000 nM.

For the molecule `CC(C)(C)c1ccc(NC(=O)c2ccc(-c3ncccc3NS(=O)(=O)Cc3ccccc3)cc2)cc1` [Compound 417, N-(4-tert-Butyl-phenyl)-4-(3-phenylinethanesulfonylamino-pyridin-2-yl)-benzamide], the Ki is below 1000 nM.

For `CCCOc1cccnc1-c1ccc(C(=O)Nc2ccc(C(C)(C)C)cc2)cc1` [Compound 418, N-(4-tert-Butyl-phenyl)-4-(3-propoxy-pyridin-2-yl)-benzamide], the Ki is below 1000 nM.

As to `CCCNc1cccnc1-c1ccc(C(=O)Nc2ccc(C(C)(C)C)cc2)cc1` [Compound 419, N-(4-tert-Butyl-phenyl)-4-(3-propylamino-pyridin-2-yl)-benzamide], the Ki was below 1000 nM.

For `CC(C)(C)c1ccc(NC(=O)c2ccc(-c3ncccc3CN3CCCC3)cc2)cc1` [Compound 420, N-(4-tert-Butyl-phenyl)-4-(3-pyrrolidin-1-ylmethyl-pyridin-2-yl)-benzamide], the inhibition constant Ki is below 1000 nM.

With `CC(C)(C)c1ccc(NC(=O)c2ccc(-c3ncccc3C(F)(F)F)cc2)cc1` [Compound 421, N-(4-tert-Butyl-phenyl)-4-(3-trifluoromethyl-pyridin-2-yl)-benzamide], the inhibition constant Ki is below 1000 nM.

For `CC(C)(C)c1ccc(NC(=O)c2ccc(-c3cc(C(F)(F)F)ccn3)cc2)cc1` [Compound 422, N-(4-tert-Butyl-phenyl)-4-(4-trifluoromethyl-pyridin-2-yl)-benzamide], the Ki was below 1000 nM.
